The values below come from paper PMC6382696, “Drug Repurposing: The Anthelmintics Niclosamide and Nitazoxanide Are Potent TMEM16A Antagonists That Fully Bronchodilate Airways” (Frontiers in Pharmacology, 2019).

Broadly, the EC50 is the concentration giving half of the maximal effect.

Entries after “also recorded” stand apart in the source; their conditions may differ.

Experiment [1] deals with mouse tracheal rings. In words: Bronchodilation of cytokine-treated mouse tracheal rings. The note with it: overnight IL-1β, TNFα, IL-13 100 ng/ml, EC75 carbachol. As to the method:
Airway rings were treated overnight in 2 ml DMEM + PSG/HEPES/AA/NaPyr buffer alone or with the same solution supplemented with 100 ng/ml of mTNFα, mIL-13 and mIL-1β. Unlike like the typical Wake-Up protocol and ring qualifying tests, mouse tracheal rings were not exposed to KPSS and rings were not observed to relax with a β-agonist following discovery of CCh dose-responses. After several washes with PSS, EC75 concentrations of CCh were used to pre-contract rings for >30 min alone or in the presence of cytokines.

The next experiment concerns mouse airway rings. Put plainly: Duration of bronchodilation after washout and carbachol re-challenge, mouse airway rings. The note with it: EC75 carbachol, preliminary. As for the experimental part:
Mouse airway rings were exposed to a typical Wake-Up procedure including the use of KPSS and discovery of EC75 CCh dose responses. However, no isoproterenol was used to observe tissue relaxation as part of the qualification procedure. With pre-contraction with EC75 CCh for >30 min, rings were subjected to a compound dose-response, followed by a complete washout of compound, and re-contracted with EC75 CCh. Traces were recorded for several hours thereafter and normalized to theophylline as control of 100% relaxation.

Another experiment has as its system HT29. Further details: method as in Li et al., 2014. The note with it: ref Li et al., 2014, read-out: IC50 inhibition of proliferation; cited from earlier work.
The subject of another experiment is COLO205. Also noted: method as in Li et al., 2014. Particulars: ref Li et al., 2014, read-out: IC50 inhibition of proliferation; cited from earlier work.
For experiment [2], the system named is Wnt/β-catenin transcription. Put plainly: Wnt/β-catenin transcription TOPFlash reporter assay. Format: cell-based. Particulars: Wnt TopFlash IC50 over TMEM16A eYFP IC50. Background: Reporter assays use an easily measured gene product as a stand-in for the process of interest.
The subject of another experiment is HCT116. Also noted: method as in Li et al., 2014. Particulars: ref Li et al., 2014, read-out: IC50 inhibition of proliferation; cited from earlier work.
Experiment [3] relates to primary human airway smooth muscle cells. In words: Methacholine-induced depolarization of primary human airway smooth muscle cells. The note with it: donor 199524, 20 M methacholine (so in the source), read-out: EC50 inhibition of methacholine-induced depolarization (converted). Type of experiment: cell-based. As to the method: Cultured human bronchial smooth muscle cells (BSMC) from Lonza were resuspended in Smooth Muscle Growth Medium-2 (SmGM-2; Lonza) at a concentration of 4 × 10^5 cells per ml. One hundred microliters of cells per well were plated in a black wall clear bottom polystyrene 96-well tissue culture plate and incubated in a 37°C humidified incubator with 5% CO2 overnight. Cells were serum starved by removing the SmGM-2 and replaced with one hundred microliters per well of Smooth Muscle Cell Basal Medium 2 (SmBM-2), phenol red-free (PromoCell), and incubated in a 37°C humidified incubator with 5% CO2 for 24 h. SmBM-2 was replaced with 100 microliters of fresh SmBM-2. […] Using the FLIPR-Tetra (Molecular Devices), three measurements of the baseline fluorescence were taken over the span of 1 min. […] Fifty-five fluorescence measurements were taken over the span of 14 min. The area under the curve (AUC) from the fluorescence kinetic traces (normalized to baseline fluorescence) were calculated. The amount of fluorescence in the presence of compound compared with that in the presence of DMSO vehicle alone (HI control) was calculated using the formula: % control (POC) = (compd – average LO)/(average HI – average LO)^∗100. […]
Panels (B-D) show raw fluorescence data from the membrane potential assay of buffer alone (dashed line), buffer plus 20 µM methacholine […]
RFU = relative fluorescence units. […]

The subject of experiment [4] is mouse tracheal rings. Put plainly: β-agonist use-dependent desensitization of mouse tracheal rings. The note with it: add-on after isoproterenol round 2. From the text:
Standard procedures were used to prepare and mount tissues.

Take `O=C(Nc1ccc([N+](=O)[O-])cc1Cl)c1cc(Cl)ccc1O` [Niclosamide]: the “bronchodilation of cytokine-treated airways” value in the experiment with mouse tracheal rings [1] is “fully bronchodilated”. In addition, the “duration of bronchodilation after washout and re-challenge” value in the experiment on mouse airway rings is on record as “long lasting; also recorded: sustained bronchodilation lasting several hours”. Besides, the IC50 was 4170 nM in the experiment on HT29, 980 nM in the experiment on COLO205 and 370 nM with HCT116. In experiment [2], the “IC50 Ratio, Wnt/TMEM16A” value is listed as 2.62.

For `CCc1oc2ccccc2c1C(=O)c1cc(Br)c(O)c(Br)c1` [Benzbromarone], the “bronchodilation of cytokine-treated airways” value with mouse tracheal rings [1] is given as “fully bronchodilated”. Also, the “duration of bronchodilation after washout and re-challenge” value with mouse airway rings was “long lasting; also recorded: sustained bronchodilation lasting several hours”.

`Oc1ccc(Cl)cc1Cc1cc(Cl)ccc1O` [Dichlorophen]: the 50% effective concentration (EC50) in experiment [3] was 3700 nM.

On to `O=C(Nc1ccc(Cl)cc1)c1cc(Cl)ccc1O` [Cpd 5], for which, in experiment [2], the “IC50 Ratio, Wnt/TMEM16A” value is listed as 3.51.

As for `COc1cc([N+](=O)[O-])ccc1NC(=O)c1cc(Cl)c2ccccc2c1O` [Cpd 4], the “% relaxation after add-on to desensitized ring” value with mouse tracheal rings [4] (EC50 carbachol) is 98.9%; with mouse tracheal rings [4] (EC75 carbachol), 95.4%.
